Laboratory results taken from the supplement of paper PMC11208160.

test: recombinant barcode read abundance after kanamycin selection (control-corrected) (log10(CPM+1)); higher = more efficient recombination; sequences stand for … in AGTGCAGAGAAAATCGGCCAGTTTTCTCTGCCTGCAGTCCGCATGCCGT…AGATTTATGCAGCGGACTGCCTTTCTCCCAAAGTGATAAACCGGACAGTATCATGGACCGGTTTTCCCGGTAATCCGTATTTGCAAGGTTGGTTTCACT; site = the 11-nt target
In short: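 In a pooled screen in E. coli, targets were paired with target-binding loops of the IS621 bridge RNA. Each oligo carried a promoter, a target, a barcode and the first 104 bridge RNA bases driven by J23119, and was Gibson-cloned into a vector holding the remaining 73 bp and a T7-inducible recombinase before co-electroporation with a donor plasmid. Duplicate platings went onto chloramphenicol/ampicillin LB agar as the control or onto chloramphenicol/ampicillin/kanamycin with 0.1 mM IPTG. Recombination efficiency is the averaged, control-corrected count per million of barcodes at recombinant junctions, given as log10(CPM+1).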
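Also: IS621 recombinase and bridge RNA in Escherichia coli cells.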

| Sequence | recombinant barcode read abundance (log10) |
| --- | --- |
| CTCCGTCCTTGGGTTCTAACCTGTTGCCG (site CTCCGTCCTCG) | 1.25 |
| GGAGAACCTTGGGTTCTAACCTGTTGCCT (site AGAGAACCTAG) | 1.85 |
| GCTCATTCTTGGGTTCTAACCTGTTGCCT (site GCTCATGCTAG) | 0 |
| GTCAGCCCTTGGGTTCTAACCTGTTGCGG (site GTCAGCCCTCC) | 2.53 |
| GTCGAGTCTTGGGTTCTAACCTGTTGCCT (site GTCGACACTAG) | 0.186 |
| GAGGTATCTTGGGTTCTAACCTGTTGCTT (site GAGGTATCTAA) | 0.35 |
| CATAACTCTTGGGTTCTAACCTGTTGCCT (site AATAACTCTAG) | 0.0585 |
| GTAACTCCTTGGGTTCTAACCTGTTGCCT (site TGAACTCCTAG) | 0.041 |
| CAGGCGTCTTGGGTTCTAACCTGTTGCCT (site CAGGCGACTAG) | 0.109 |
| CCAAGTCCTTGGGTTCTAACCTGTTGCCT (site CCAAGTCCTAG) | 0.892 |
| TTCCCGCCTTGGGTTCTAACCTGTTGCCT (site TTCTCGCCTAG) | 0.155 |
| ACTGATCCTTGGGTTCTAACCTGTTGCCT (site ACTGATGCTAG) | 0.671 |
| GGACAATCTTGGGTTCTAACCTGTTGCCT (site GGACTATCTAG) | 0.0608 |
| ATGAGGCCTTGGGTTCTAACCTGTTGCCT (site ATGAGGCCTAG) | 0.858 |
| CTGTTATCTTGGGTTCTAACCTGTTGCCT (site CTGTTATCTAG) | 0.237 |
| TAGAATCCTTGGGTTCTAACCTGTTGCAG (site TAGAATCCTGT) | 0.0644 |
| TGAGTCCCTTGGGTTCTAACCTGTTGCCT (site TGCGTCCCTAG) | 0.201 |
| GTCGAGCCTTGGGTTCTAACCTGTTGCCT (site GTTCAGCCTAG) | 0.157 |
| TTAGTCCCTTGGGTTCTAACCTGTTGCCT (site TTAGTGCCTAG) | 0.202 |
| ATTAAGTCTTGGGTTCTAACCTGTTGCCT (site ACTAAGTCTAG) | 0.08 |
| GTGGCCACTTGGGTTCTAACCTGTTGCCT (site GTTGCCACTAG) | 0.229 |
| GTGTACCCTTGGGTTCTAACCTGTTGCAC (site GTGTACCCTGT) | 2.35 |

| Sequence | recombinant barcode read abundance (log10) |
| --- | --- |
| AGGTCACCTTGGGTTCTAACCTGTTGCGT (site AGGTCACCTAG) | 0.536 |
| ACATGTACTTGGGTTCTAACCTGTTGCAT (site ACATGAACTAT) | 0.0356 |
| TAAATCCCTTGGGTTCTAACCTGTTGCGA (site ACGGAATCTCG) | 0.0648 |
| GGGCACTCTTGGGTTCTAACCTGTTGCGT (site GGGCACTCTAC) | 2.97 |
| CGTTCGACTTGGGTTCTAACCTGTTGCAT (site CGTTCGACTAT) | 0.133 |
| GACAGTACTTGGGTTCTAACCTGTTGCCT (site AACAGTACTAG) | 0.165 |
| AACGCTCCTTGGGTTCTAACCTGTTGCCT (site ATCGCTCCTAG) | 0.239 |
| CTGCTGTCTTGGGTTCTAACCTGTTGCCA (site CTGGTGTCTTG) | 0.402 |
| TCCGTCTCTTGGGTTCTAACCTGTTGCCA (site TCCGTCTCTCG) | 0.233 |
| AGGGATACTTGGGTTCTAACCTGTTGCGT (site ATGGATACTAC) | 1.58 |
| GGAGATGCTTGGGTTCTAACCTGTTGCCT (site GGAGACGCTAG) | 0.291 |
| TATACAACTTGGGTTCTAACCTGTTGCCT (site TATAGAACTAG) | 0.0301 |
| GCGCCCTCTTGGGTTCTAACCTGTTGCCG (site CAATTACCTAA) | 0.194 |
| GAGAGCACTTGGGTTCTAACCTGTTGCCT (site GAGAGCACTAG) | 1.4 |
| AGGAACTCTTGGGTTCTAACCTGTTGCCT (site AGGAACTCTAG) | 2.52 |
| TTAGGGCCTTGGGTTCTAACCTGTTGCCT (site TTAGGGACTAG) | 0.0406 |
| CGTTGCCCTTGGGTTCTAACCTGTTGCCT (site CTTTGCCCTAG) | 0.468 |
| CAGCTAACTTGGGTTCTAACCTGTTGCCT (site CAGCTAACTAG) | 1.54 |
| AGGTCACCTTGGGTTCTAACCTGTTGCTT (site AGGTCACCTAG) | 0.914 |
| GAGTTGCCTTGGGTTCTAACCTGTTGCGT (site GAGTTCCCTAC) | 0.108 |
| TAGCTCCCTTGGGTTCTAACCTGTTGCCG (site TAGCTCCCTGG) | 0.238 |
| GGGCACTCTTGGGTTCTAACCTGTTGCGT (site GGGCACTCTAG) | 0.161 |

| Sequence | recombinant barcode read abundance (log10) |
| --- | --- |
| TCCAGCACTTGGGTTCTAACCTGTTGCCT (site TCCAGCACTAG) | 0.412 |
| TGCGACCCTTGGGTTCTAACCTGTTGCTT (site TGCGACCCTAA) | 1.74 |
| GCTTTACCTTGGGTTCTAACCTGTTGCCT (site TCTTTACCTAG) | 0.0534 |
| TCCGCTCCTTGGGTTCTAACCTGTTGCCT (site TCCGCTTCTAG) | 0.0907 |
| GATAGTACTTGGGTTCTAACCTGTTGCCT (site GATAGTCCTAG) | 0.0718 |
| TCATCTCCTTGGGTTCTAACCTGTTGCCT (site TCATCTCCTAG) | 0.092 |
| ACTAAGTCTTGGGTTCTAACCTGTTGCCT (site ATTAAGTCTAG) | 0.0792 |
| CTAAGAGCTTGGGTTCTAACCTGTTGCAG (site CTAAGAGCTCG) | 0.123 |
| TCACGTCCTTGGGTTCTAACCTGTTGCGT (site TCACGTCCTAC) | 1.3 |
| ATCAAGCCTTGGGTTCTAACCTGTTGCTT (site ATGAAGCCTAA) | 0.122 |
| ACATGTACTTGGGTTCTAACCTGTTGCCG (site ACATGTACTCA) | 0.0415 |
| TTCTGAGCTTGGGTTCTAACCTGTTGCCT (site TTCTGGGCTAG) | 0.115 |
| GCTTGTTCTTGGGTTCTAACCTGTTGCCT (site TCTTGTTCTAG) | 0.11 |
| GTAACTACTTGGGTTCTAACCTGTTGCGG (site GTCACTACTAC) | 0.0797 |
| GAACACTCTTGGGTTCTAACCTGTTGCTG (site GAACACTCTCA) | 2.09 |
| AGGTTCCCTTGGGTTCTAACCTGTTGCTT (site AGGTTCCCTAA) | 1.41 |
| GGGAACCCTTGGGTTCTAACCTGTTGCTC (site GGGAACCCTAA) | 0.131 |
| TCTAATTCTTGGGTTCTAACCTGTTGCGT (site TCTTATTCTAC) | 0.047 |
| TAGGCGGCTTGGGTTCTAACCTGTTGCGT (site TAGGCGGCTAC) | 2.63 |
| AGTGCGCCTTGGGTTCTAACCTGTTGCTA (site AGTTCGCCTTA) | 0.29 |
| GAGAGCACTTGGGTTCTAACCTGTTGCCT (site TAGAGCACTAG) | 0.548 |
| GAGTTAACTTGGGTTCTAACCTGTTGCCG (site GTGTGAACTCG) | 0.0546 |

| Sequence | recombinant barcode read abundance (log10) |
| --- | --- |
| GTGAAGACTTGGGTTCTAACCTGTTGCTT (site GTGAAGACTAA) | 1.41 |
| AATGCTCCTTGGGTTCTAACCTGTTGCGT (site AATGCTCCTAC) | 2.03 |
| CCTAAGACTTGGGTTCTAACCTGTTGCCC (site CCTAAGACTTG) | 0.0914 |
| CCTACAGCTTGGGTTCTAACCTGTTGCCT (site CCTACATCTAG) | 0.0747 |
| TTGAACTCTTGGGTTCTAACCTGTTGCCT (site TTGAGCTCTAG) | 0.0203 |
| GTTCGAGCTTGGGTTCTAACCTGTTGCCT (site GTTTGAGCTAG) | 0.153 |
| GGCACAACTTGGGTTCTAACCTGTTGCCT (site GGCACGACTAG) | 0.262 |
| TCTCGGCCTTGGGTTCTAACCTGTTGCCT (site TCTCGGCCTAG) | 0.202 |
| GGAGAACCTTGGGTTCTAACCTGTTGCCT (site GGAGAACCTAG) | 2.48 |
| ACAGAGACTTGGGTTCTAACCTGTTGCAG (site ACAGAGACTCT) | 1.35 |
| CTTAGGACTTGGGTTCTAACCTGTTGCCC (site CTTAGGACTCG) | 0.283 |
| GCCTATTCTTGGGTTCTAACCTGTTGCGT (site GCCTATTCTAC) | 0.4 |
| AAGTTTCCTTGGGTTCTAACCTGTTGCAT (site AAGTTTCCTAT) | 0.22 |
| GGAATACCTTGGGTTCTAACCTGTTGCCT (site GGAATGCCTAG) | 0.0994 |
| GTATGAGCTTGGGTTCTAACCTGTTGCCT (site GTATGAGCTAG) | 1.5 |
| CTAGGCCCTTGGGTTCTAACCTGTTGCAT (site CTAGGCCCTAA) | 0.379 |
| CTCCAAGCTTGGGTTCTAACCTGTTGCCT (site CTGCAAGCTAG) | 0.0619 |
| TGCCCCGCTTGGGTTCTAACCTGTTGCCT (site TGCCCCGCTAG) | 1.11 |
| CTCTGGGCTTGGGTTCTAACCTGTTGCCT (site CTCTCGGCTAG) | 0.29 |
| GATGGGACTTGGGTTCTAACCTGTTGCCG (site GATGGGACTCG) | 2.19 |
